Laboratory results taken from patent publication EP0272446B1, “Novel antiviral agents” (SRI INTERNATIONAL, priority 1983, dated 1984).
Converted amounts (≈) assume the structure as drawn. Read-outs that look alike come from different tables or passages of the source. Values belong to the compound of their own block, whether it stands above or below them.

Assays:
[1] = system: thymidine kinase positive herpes virus; assay: In vivo test in guinea pigs inoculated with herpes virus, lesions measured; conditions: for Satellite lesions: five days later; for TK+ virus, average number of lesions: measured five days later
Procedure: The compound of Example II was tested in vivo in guinea pigs as an agent against thymidine kinase positive herpes virus. The animals were innoculated with the virus. Eighteen hours later the material of Example II (0.4% solution in water or 1-2% solution), a 5% solution of acyclovir or a 1.4% solution of poly(vinylalcohol) was administered and five days later blister diameters at the point of innoculation were measured. Satellite lesions were measured as well.

[2] = system: Thymidine Kinase-Positive Type 1 Herpes Virus; assay: In vitro antiviral test, inhibition of viral cytopathic effect (CPE) in MA-104 cell monolayers; format: cell-based, Strain McCrae of type 1 herpes
Procedure: The compounds of Example I and II were evaluated in vitro as antiviral agents against herpes virus.
The virus strain employed was Strain McCrae of type 1 herpes (thymidine kinase positive virus) prepared and titered in MA-104 cells and frozen at -90°C until use.
(§1) Continuous passaged monkey kidney (MA-104) cells were used, with growth medium consisting of Minimum Essential Medium (MEM) supplemented with 0.1% NaHCO₃ and 9% fetal calf serum. Test medium consisted of MEM supplemented with 2% fetal bovine serum, 0.18% NaHCO₃ and […] gentamicin.
The last compounds were added to test medium at a concentration of 2000 µg/ml for use as a positive control.
(§2) To a 96 well microtiter plate containing an established 24 hour monolayer of cells from which the medium has been decanted was added 0.1 ml of varying (one-half log₁₀) concentrations of test compound, which incubated on the cell 15 minutes, after which 0.1 ml of virus in a concentration of 320 cell culture 50% infectious doses (CCID50)/0.1 ml was added. The plate was covered with plastic wrap and incubated at 37°C. Included with the test were toxicity controls (each concentration of compound + test medium in place of […]) and cell controls (test medium in place of compound and virus). The cells were examined microscopically after 72 hours for evidence of cytotoxicity and for viral cytopathic effect (CPE). Vidarabine was run on the same plate in parallel.
(§3) Antiviral activity was determined by observation of inhibition of viral CPE. This activity was expressed by minimum inhibitory concentration (MIC), Defined as that dose range of compound causing 50% CPE inhibition. A Virus Rating (VR) was also determined, which is a numerical expression of antiviral activity, weighted to take into account any cytotoxicity observed. Generally, a VR of 0.1 - 0.4 is usually indicative of slight antiviral effect, 0.5 - 0.9 indicates moderate antiviral effedt, and >1.0 implies strong antiviral activity.

[3] = Cytotoxicity (toxicity controls) in the antiviral test, maximum tolerated dose; format: cell-based; conditions: monkey, ma-104 cells, Table B
Procedure: as §1, §2

[4] = system: cytomegalo virus; assay: In vitro antiviral test (CPE inhibition method) against cytomegalo virus; format: cell-based
Procedure: as §2
as §3, with “Generally, a VR of 0.1 - 0.4 is usually indicative of slight antiviral effect, 0.5 - 0.9 indicates moderate antiviral effedt, and >1.0 implies strong antiviral activity.” left out
The compound of Example II was further evaluated by the above-described in vitro test method against cytomegalo virus. […]

[5] = 5% solution given eighteen hours after inoculation
[6] = Table A, 0.1 - 0.4 = slight, 0.5 - 0.9 = moderate, ≥ 1.0 = strong activity
[7] = MA104, read-out: MIC (Minimum inhibitory concentration)
[8] = MA104, read-out: Test1 CPE Inhib. (%)
[9] = MA104, read-out: Test2 CPE Inhib. %
[10] = Test 1, read-out: MTD (Maximum tolerated dose)
[11] = Test 2, read-out: MTD (Maximum tolerated dose)
[12] = 0.4% solution in water given eighteen hours after inoculation
[13] = 1-2% saturated solution given eighteen hours after inoculation
[14] = MA104, 72 h, read-out: CPE Inhib. (%)

SMILES: Nc1nc2c(ncn2COCCO)c(=O)[nH]1 [Acyclovir, acyclovir, reference compound]
Satellite lesions [1, 5]: 4
TK+ virus, average number of lesions [1, 5]: 1.0

EC50 ([2]; MA104, Table A, dosage range wherein a 50% CPE inhibition is seen, read-out: MIC (Minimum inhibitory concentration)): 10 µg/mL (≈ 33 µM)
SMILES: Nc1nc2c(ncn2COCCCP(=O)(O)O)c(=O)[nH]1 [Example I, 9(3-phosphono-1-propyloxymethyl)guanine]
inhibition at 1 µg/mL ([2]; MA104, Table A, conc. 1.0 μg/ml, 72 hours, read-out: CPE Inhib. (%)): 31%
inhibition at 3.2 µg/mL ([2]; MA104, Table A, conc. 3.2 μg/ml, 72 hours, read-out: CPE Inhib. (%)): 28%
inhibition at 10 µg/mL ([2]; MA104, Table A, conc. 10 μg/ml, 72 hours, read-out: CPE Inhib. (%)): 49%
inhibition at 32 µg/mL ([2]; MA104, Table A, conc. 32 μg/ml, 72 hours, read-out: CPE Inhib. (%)): 62%
inhibition at 100 µg/mL ([2]; MA104, Table A, conc. 100 μg/ml, 72 hours, read-out: CPE Inhib. (%)): 79%
inhibition at 320 µg/mL ([2]; MA104, Table A, conc. 320 μg/ml, 72 hours, read-out: CPE Inhib. (%)): 94%
inhibition at 1000 µg/mL ([2]; MA104, Table A, conc. 1000 μg/ml, 72 hours, read-out: CPE Inhib. (%)): 100%
VR (Virus rating) [2, 6]: 1.4

SMILES: CCOP(=O)(O)CCCOCn1cnc2c(=O)[nH]c(N)nc21 [Example II, 9(3-ethylphosphono-1-propyloxymethyl)guanine]
EC50 [2, 7]: < 1 µg/mL
inhibition at 1.2 µg/mL [2, 8]: 69%
inhibition at 3.2 µg/mL [2, 8]: 96%
inhibition at 10 µg/mL [2, 8]: 38%
inhibition at 32 µg/mL [2, 8]: 6%
inhibition at 100 µg/mL [2, 8]: 47%
inhibition at 320 µg/mL [2, 8]: 82%
inhibition at 1000 µg/mL [2, 8]: 100%
inhibition at 1.2 µg/mL [2, 9]: 48%
inhibition at 3.2 µg/mL [2, 9]: 52%
inhibition at 10 µg/mL [2, 9]: 48%
inhibition at 32 µg/mL [2, 9]: 57%
inhibition at 100 µg/mL [2, 9]: 57%
inhibition at 320 µg/mL [2, 9]: 67%
inhibition at 1000 µg/mL [2, 9]: 76%
VR (Virus rating) ([2]; Table B, Test 1): >2.0
VR (Virus rating) ([2]; Table B, Test 2): >1.4
MIC (Minimum inhibitory concentration) ([2]; Table B, Test 2, dosage range wherein a 50% CPE inhibition is seen): <1.0 µg/mL
MNTC at 72 h [3, 10]: 320 µg/mL
MNTC at 72 h [3, 11]: > 1000 µg/mL
VR [4]: 2.1-2.3
Satellite lesions [1, 12]: 11
TK+ virus, average number of lesions [1, 12]: 2.1
Satellite lesions [1, 13]: 6
TK+ virus, average number of lesions [1, 13]: 0.9

SMILES: Nc1ncnc2c1ncn2[C@@H]1O[C@H](CO)[C@@H](O)[C@@H]1O [Vidarabine, reference compound]
inhibition at 1 µg/mL [2, 14]: 56%
inhibition at 3.2 µg/mL [2, 14]: 28%
inhibition at 10 µg/mL [2, 14]: 69%
inhibition at 32 µg/mL [2, 14]: 87%
inhibition at 100 µg/mL [2, 14]: 87%
inhibition at 320 µg/mL [2, 14]: 100%
inhibition at 1000 µg/mL [2, 14]: 100%
EC50 [2, 7]: 10 µg/mL (≈ 37.4 µM)
inhibition at 3.2 µg/mL [2, 8]: 2%
inhibition at 10 µg/mL [2, 8]: 60%
inhibition at 32 µg/mL [2, 8]: 96%
inhibition at 100 µg/mL [2, 8]: 96%
inhibition at 320 µg/mL [2, 8]: 100%
inhibition at 1000 µg/mL [2, 8]: 100%
inhibition at 3.2 µg/mL [2, 9]: 0%
inhibition at 10 µg/mL [2, 9]: 39%
inhibition at 32 µg/mL [2, 9]: 57%
inhibition at 100 µg/mL [2, 9]: 85%
inhibition at 320 µg/mL [2, 9]: 100%
inhibition at 1000 µg/mL [2, 9]: 100%
VR (Virus rating) [2, 6]: 1.3
VR (Virus rating) ([2]; Table B, Test 1): 0.8
VR (Virus rating) ([2]; Table B, Test 2): 07
MNTC at 72 h [3, 10]: 10 µg/mL
MNTC at 72 h [3, 11]: 10 µg/mL
